Test results published in patent US8324227B2, “Thieno[2,3-D]-pyrimidin-4(3H)-one compounds with antifungal properties and process thereof” (FDC Limited, priority 2008, dated 2012).
≈ marks a conversion by molar mass, not a printed value.

What was measured:
Test in all cases: Antifungal susceptibility, MIC by broth macro-dilution method
A. niger (ATCC 16404) = format: cell-based, Aspergillus niger; conditions: end points after 48 hours, NI till x = no inhibition up to x; for MIC: Aspergillus niger, ATCC16404, RPMI 1640 medium with MOPS buffer, read-out: MIC against fungi, A. niger (ATCC 16404); for MIC against fungi, A. niger (ATCC 16404): RPMI 1640 medium with MOPS buffer
Experimental: (§1) In vitro evaluation of antifungal activity was performed by determining the minimum inhibitory concentration (MIC). Anti-fungal susceptibility testing of these anti-fungal compounds was done by broth dilution method using RPMI 1640 medium with MOPS buffer. Known anti-fungal agents like fluconazole and amphotericin-B were used as positive control. End points were determined after 48 hours visually and by using spectrophotometer wherever necessary. Different dilutions were, tried and various sets of experiments performed.

[1] = tested on: F. proliferatum (ATCC 10052); format: cell-based, Fusarium proliferatum; conditions: end points after 48 hours, NI till x = no inhibition up to x; for MIC: Fusarium proliferatum, ATCC10052, RPMI 1640 medium with MOPS buffer, read-out: MIC against fungi, F. proliferatum (ATCC 10052); for MIC against fungi, F. proliferatum (ATCC 10052): RPMI 1640 medium with MOPS buffer
Experimental: as §1

C. albicans (ATCC 24433) = format: cell-based, Candida albicans; conditions: end points after 48 hours, NI till x = no inhibition up to x; for MIC: Candida albicans, ATCC24433, RPMI 1640 medium with MOPS buffer, read-out: MIC against fungi, C. albicans (ATCC 24433); for MIC against fungi, C. albicans (ATCC 24433): RPMI 1640 medium with MOPS buffer
Experimental: as §1

Row | Structure (SMILES) | MIC (A. niger (ATCC 16404)) | MIC [1] | MIC (C. albicans (ATCC 24433)) | MIC against fungi, A. niger (ATCC 16404) (A. niger (ATCC 16404)) | MIC against fungi, F. proliferatum (ATCC 10052) [1] | MIC against fungi, C. albicans (ATCC 24433) (C. albicans (ATCC 24433))
1 | CCCCCCCCCc1cc2c(=O)n(CC(O)(Cn3cncn3)c3ccc(F)cc3F)cnc2s1 (stereo not drawn) [Compound 1-A17, 3-[2-(2,4-Difluorophenyl)-2-hydroxy-3-[1,2,4]-triazol-1-yl-propyl]-6-n-nonylthieno[2,3-d]pyrimidin-4(3H)-one] | > 4 µg/mL | > 4 µg/mL | 0.25 to 0.5 µg/mL (≈ 0.485 to 0.97 µM) | – | – | –
2 | CCCCCc1sc2ncn(CC(O)(Cn3cncn3)c3ccc(F)cc3F)c(=O)c2c1C (stereo not drawn) [Compound 1-A11, 3-[2-(2,4-Difluorophenyl)-2-hydroxy-3-[1,2,4]triazol-1-yl-propyl]-5-methyl-6-npentyl-thieno[2,3-d]pyrimidin-4(3H)-one] | – | – | – | NI till 2 μg/ml | NI till 2 μg/ml | 1 to 2 µg/mL
3 | CCCCCCc1cc2c(=O)n(CC(O)(Cn3cncn3)c3ccc(F)cc3F)cnc2s1 (stereo not drawn) [Compound 1-A03, 3-[2-(2,4-Difluorophenyl)-2-hydroxy-3-[1,2,4]-triazol-1-yl-propyl]-6-(n-hexyl)-thieno[2,3-d]pyrimidin-4(3H)-one] | > 2 µg/mL | > 2 µg/mL | 0.03 to 0.06 µg/mL (≈ 0.0634 to 0.127 µM) | – | – | –
4 | CCCc1cc2c(=O)n(CC(O)(Cn3cncn3)c3ccc(F)cc3F)cnc2s1 (stereo not drawn) [Compound 1-A18, 3-[2-(2,4-Difluorophenyl)-2-hydroxy-3-[1,2,4]-triazol-1-yl-propyl]-6-(n-propyl)-thieno[2,3-d]pyrimidin-4(3H)-one] | > 32 µg/mL | > 32 µg/mL | 0.06 to 0.12 µg/mL (≈ 0.139 to 0.278 µM) | – | – | –
5 | O=c1c2c3c(sc2ncn1CC(O)(Cn1cncn1)c1ccc(F)cc1F)CCCC3 (stereo not drawn) [Compound 1-A09, 3-[2-(2,4-Difluorophenyl)-2-hydroxy-3-[1,2,4]-triazol-1-yl-propyl]-5,6,7,8-tetrahydrobenzothieno[2,3-d]pyrimidin-4(3H)-one] | > 8 µg/mL | > 8 µg/mL | 0.25 to 0.5 µg/mL (≈ 0.564 to 1.13 µM) | – | – | –
6 | CCc1cc2c(=O)n(CC(O)(Cn3cncn3)c3ccc(F)cc3F)cnc2s1 (stereo not drawn) [Compound 1-A22, 3-[2-(2,4-Difluorophenyl)-2-hydroxy-3-[1,2,4]triazol-1-yl-propyl]-6-ethylthieno[2,3-d]pyrimidin-4(3H)-one] | > 16 µg/mL | > 16 µg/mL | 0.06 to 0.12 µg/mL (≈ 0.144 to 0.287 µM) | – | – | –
7 | CCCCc1c(CCC)sc2ncn(CC(O)(Cn3cncn3)c3ccc(F)cc3F)c(=O)c12 (stereo not drawn) [Compound 1-A05, 5-n-Butyl-3-[2-(2,4-difluorophenyl)-2-hydroxy-3-[1,2,4]-triazol-1-yl-propyl]-6-n-propyl-thieno[2,3-d]pyrimidin-4(3H)-one] | > 4 µg/mL | > 4 µg/mL | 2 to 4 µg/mL (≈ 4.1 to 8.2 µM) | – | – | –
8 | CCCCCc1cc2c(=O)n(CC(O)(Cn3cncn3)c3ccc(F)cc3F)cnc2s1 (stereo not drawn) [Compound 1-A04, 3-[2-(2,4-Difluorophenyl)-2-hydroxy-3-[1,2,4]-triazol-1-yl-propyl]-6-n-pentylthieno[2,3-d]pyrimidin-4(3H)-one] | > 4 µg/mL | > 4 µg/mL | 0.03 to 0.06 µg/mL (≈ 0.0653 to 0.131 µM) | – | – | –
9 | CCCCCCCc1cc2c(=O)n(CC(O)(Cn3cncn3)c3ccc(F)cc3F)cnc2s1 (stereo not drawn) [Compound 1-A06, 3-[2-(2,4-Difluorophenyl)-2-hydroxy-3-[1,2,4]-triazol-1-yl-propyl]-6-n-heptylthieno[2,3-d]pyrimidin-4(3H)-one] | > 2 µg/mL | > 2 µg/mL | 0.06 to 0.12 µg/mL (≈ 0.123 to 0.246 µM) | – | – | –
10 | CC(=O)OCCCCCCCc1cc2c(=O)n(CC(O)(Cn3cncn3)c3ccc(F)cc3F)cnc2s1 (stereo not drawn) [Compound 1-A12, 6-(7-Acetoxyheptyl)-3-[2-(2,4-difluorophenyl)-2-hydroxy-3-[1,2,4]-triazol-1-ylpropyl]-thieno[2,3-d]pyrimidin-4(3H)-one] | > 2 µg/mL | > 2 µg/mL | 0.12 to 0.25 µg/mL (≈ 0.22 to 0.458 µM) | – | – | –
11 | O=c1c2c3c(sc2ncn1CC(O)(Cn1cncn1)c1ccc(F)cc1F)CCCCCCCCCC3 (stereo not drawn) [Compound 1-A19, 3-[2-(2,4-Difluorophenyl)-2-hydroxy-3-[1,2,4]-triazol-1-yl-propyl]3,5,6,7,8,9,10,11,12,13,14-undecahydrocyclododeca[4,5]thieno[2,3-d]pyrimidin-4(3H)-one] | – | – | – | NI till 2 μg/ml | NI till 2 μg/ml | NI till 2 μg/ml
12 | O=c1c2cc(CCCCCCCO)sc2ncn1CC(O)(Cn1cncn1)c1ccc(F)cc1F (stereo not drawn) [Compound 1-A13, 3-[2-(2,4-Difluorophenyl)-2-hydroxy-3-[1,2,4]triazol-1-yl-propyl]-6-(7-hydroxyheptyl)-thieno[2,3-d]pyrimidin-4(3H)-one] | > 16 µg/mL | > 16 µg/mL | 0.12 to 0.25 µg/mL (≈ 0.238 to 0.496 µM) | – | – | –
